Experimental data: patent US8394789B2, “(Dihydro)pyrrolo[2,1-α]isoquinolines” (MSD Oss B.V., priority 2008, dated 2013)

Target: T1, human FSH receptor (Homo sapiens, UniProt P23945)
T1 construct: expressed in transfected cells
T1 sequence (P23945 18-695): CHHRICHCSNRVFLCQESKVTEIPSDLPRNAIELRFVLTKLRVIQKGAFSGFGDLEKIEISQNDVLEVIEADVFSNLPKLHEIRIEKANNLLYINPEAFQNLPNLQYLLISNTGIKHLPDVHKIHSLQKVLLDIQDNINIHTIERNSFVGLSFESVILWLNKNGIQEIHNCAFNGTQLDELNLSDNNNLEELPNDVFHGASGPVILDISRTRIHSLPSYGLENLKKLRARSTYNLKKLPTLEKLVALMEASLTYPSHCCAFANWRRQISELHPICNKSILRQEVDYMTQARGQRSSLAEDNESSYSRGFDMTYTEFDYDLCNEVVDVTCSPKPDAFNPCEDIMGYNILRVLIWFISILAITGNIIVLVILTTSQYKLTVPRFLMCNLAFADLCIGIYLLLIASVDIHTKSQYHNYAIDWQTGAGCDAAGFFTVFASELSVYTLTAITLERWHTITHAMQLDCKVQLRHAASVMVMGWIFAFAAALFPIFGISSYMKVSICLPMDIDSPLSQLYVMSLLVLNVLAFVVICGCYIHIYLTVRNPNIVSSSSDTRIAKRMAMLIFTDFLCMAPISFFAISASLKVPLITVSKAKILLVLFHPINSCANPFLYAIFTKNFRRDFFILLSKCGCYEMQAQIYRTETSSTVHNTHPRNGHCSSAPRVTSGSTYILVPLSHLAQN
Assay: hFSHRago (CHO luc): agonistic activity at the human FSH receptor expressed in CHO cells, CRE-luciferase reporter
Type: cell-based
Settings: CHO cells stably transfected with human FSH receptor and CRE/luciferase reporter; 4 hours of incubation
Description: The term EC50 means the concentration of the test compound that elicits half-maximal (50%) stimulation compared to the compound's maximally attainable effect. The values can be determined e.g. in a cell line transfected with a FSH receptor gene and cotransfected with a cAMP responsive element/promoter directing the expression of a reporter gene. Values can be determined using the software program such as MathIQ (version 2.0, ID Business Solutions Limited).
Agonistic activity of the compounds at the human FSH receptor was determined in Chinese Hamster Ovary (CHO) cells stably transfected with the human FSH receptor and cotransfected with a cAMP responsive element (CRE)/promoter directing the expression of a firefly luciferase reporter gene. […] Cells (7,500 cells/well of a 384 well plate) were incubated in Dulbecco' minimal essential F12 modified medium (Invitrogen), supplemented with 1 μg/ml bovine insulin, 5 μg/ml human apo-transferrin, 80 U/ml penicillin G and 80 μg/ml streptomycin with the test compounds (concentration between 0.0316 nM and 10.0 μM) in duplicate in a humidified atmosphere (95%) at 5-7% CO2 and 37° C. The final concentration of DMSO was 1%. After 4 hours of incubation, plates were allowed to adjust to room temperature for 1 hour. Then, Luclite (PerkinElmer) solution was added to the wells and cells were allowed to lyse for at least 1 hour at room temperature. Subsequently, luciferase activity was measured in a luminescence counter. The signal is expressed as counts per second (cps). The EC50 (concentration of the test compound that elicits half-maximal (50%) luciferase stimulation compared to the compound's maximally attainable effect) and efficacy values (maximal effect of the test compound as percentage of the maximal effect of recombinant human FSH) of the compounds were determined using the software program MathIQ (version 2.0, ID Business Solutions Limited).

SMILES | EC50 [nM]
COc1cc2c(cc1OCCNS(C)(=O)=O)-c1c(-c3cccs3)cc(C(=O)N(C)C(C)(C)C)n1CC2 [Example 68, 9-(2-Methanesulfonylamino-ethoxy)-8-methoxy-1-thiophen-2-yl-5,6-dihydro-pyrrolo[2,1-α]isoquinoline-3-carboxylic acid tert-butyl-methyl-amide] | 16
COc1cc2c(cc1OC)-c1c(-c3ccc(F)cc3F)cc(C(=O)N(C)C(C)(C)C)n1CC2 [Example 118, 1-(2,4-Difluoro-phenyl)-8,9-dimethoxy-5,6-dihydro-pyrrolo[2,1-α]isoquinoline-3-carboxylic acid tert-butyl-methyl-amide] | 48.3
CON=Cc1c(-c2cccs2)c2n(c1C(=O)N(C)C(C)(C)C)CCc1cc(OC)c(OC(C)C)cc1-2 [Example 43, 9-Isopropoxy-8-methoxy-2-(methoxyimino-methyl)-1-thiophen-2-yl-5,6-dihydro-pyrrolo[2,1-α]isoquinoline-3-carboxylic acid tert-butyl-methyl-amide] | 4.3
COc1cc2c(cc1OCCCOC1CCCCO1)-c1c(-c3cccs3)cc(C(=O)N(C)C(C)(C)C)n1CC2 (stereo not drawn) [Example 70c, 8-Methoxy-9-[3-(tetrahydro-pyran-2-yloxy)-propoxy]-1-thiophen-2-yl-5,6-dihydro-pyrrolo[2,1-α]isoquinoline-3-carboxylic acid tert-butyl-methyl-amide] | 155
COc1cc2c(cc1OC)-c1c(-c3cccs3)cc(C(=O)N3CCC[C@@H](N(C)C(C)=O)C3)n1CC2 [Example 107, N-[(R)-1-(8,9-Dimethoxy-1-thiophen-2-yl-5,6-dihydro-pyrrolo[2,1-α]isoquinoline-3-carbonyl)-piperidin-3-yl]-N-methyl-acetamide] | 30.9
COc1cc2c(cc1OC(C)C)-c1c(-c3cccs3)cc(C(=O)N3CCCC3c3cccc(F)c3)n1CC2 (stereo not drawn) [Example 28, [2-(3-Fluoro-phenyl)-pyrrolidin-1-yl]-(9-isopropoxy-8-methoxy-1-thiophen-2-yl-5,6-dihydro-pyrrolo[2,1-α]isoquinolin-3-yl)-methanone] | 752
CCCCN1CCN(C(=O)c2cc(-c3cccs3)c3n2CCc2cc(OC)c(OCC(C)(C)O)cc2-3)CCC1=O [Example 14d, 4-Butyl-1-[9-(2-hydroxy-2-methyl-propoxy)-8-methoxy-1-thiophen-2-yl-5,6-dihydro-pyrrolo[2,1-α]isoquinoline-3-carbonyl]-[1,4]diazepan-5-one] | 1.5
COc1cc2c(cc1OC(C)C)-c1c(-c3cccs3)cc(C(=O)N3CCCN(C(=O)CCN)CC3)n1CC2 [Example 5, 3-Amino-1-[4-(9-isopropoxy-8-methoxy-1-thiophen-2-yl-5,6-dihydro-pyrrolo[2,1-α]isoquinoline-3-carbonyl)-[1,4]diazepan-1-yl]-propan-1-one] | 1400
COc1cc2c(cc1OCCNC(C)=O)-c1c(-c3cccs3)cc(C(=O)N(C)C(C)(C)C)n1CC2 [Example 67, 9-(2-Acetylamino-ethoxy)-8-methoxy-1-thiophen-2-yl-5,6-dihydro-pyrrolo[2,1-α]isoquinoline-3-carboxylic acid tert-butyl-methyl-amide] | 36.5
COc1cc2c(cc1OC(C)C)-c1c(-c3cccs3)cc(C(=O)N3CCCC3c3cccnc3)n1CC2 (stereo not drawn) [Example 29, (9-Isopropoxy-8-methoxy-1-thiophen-2-yl-5,6-dihydro-pyrrolo[2,1-α]isoquinolin-3-yl)-(2-pyridin-3-yl-pyrrolidin-1-yl)-methanone] | 624
COc1cc2c(cc1OCCCN=[N+]=[N-])-c1c(-c3cccs3)cc(C(=O)N(C)C(C)(C)C)n1CC2 [Example 70f, 9-(3-Azido-propoxy)-8-methoxy-1-thiophen-2-yl-5,6-dihydro-pyrrolo[2,1-α]isoquinoline-3-carboxylic acid tert-butyl-methyl-amide] | 10.9
CNC(=O)COc1cc2c(cc1OC)CCn1c(C(=O)N(C)C(C)(C)C)cc(-c3cccs3)c1-2 [Example 64, 8-Methoxy-9-methylcarbamoylmethoxy-1-thiophen-2-yl-5,6-dihydro-pyrrolo[2,1-α]isoquinoline-3-carboxylic acid tert-butyl-methyl-amide] | 3.1
COc1cc2c(cc1OC(C)C)-c1c(-c3cccs3)cc(C(=O)N3CCCN(C(=O)C4(Br)CCC4)CC3)n1CC2 [Example 8, [4-(1-Bromo-cyclobutanecarbonyl)-[1,4]diazepan-1-yl]-(9-isopropoxy-8-methoxy-1-thiophen-2-yl-5,6-dihydro-pyrrolo[2,1-α]isoquinolin-3-yl)-methanone] | 6.8
COc1cc2c(cc1-c1cn[nH]c1)-c1c(-c3cccs3)cc(C(=O)N(C)C(C)(C)C)n1CC2 [Example 55, 8-Methoxy-9-(1H-pyrazol-4-yl)-1-thiophen-2-yl-5,6-dihydro-pyrrolo[2,1-α]isoquinoline-3-carboxylic acid tert-butyl-methyl-amide] | 1.1
CCOc1cc2c(cc1OC)CCn1c(C(=O)N(CC)C(C)C)c(C(C)=O)c(-c3cccs3)c1-2 [Example 112, 2-Acetyl-9-ethoxy-8-methoxy-1-thiophen-2-yl-5,6-dihydro-pyrrolo[2,1-α]isoquinoline-3-carboxylic acid ethyl-isopropyl-amide] | 200
COc1cc2c(cc1OC)-c1c(Br)cc(C(=O)O)n1CC2 [Example 108b] | 99.2
COc1cc2c(cc1OC(C)C)-c1c(-c3cccs3)cc(C(=O)N(C)N3CCCC3)n1CC2 [Example 32, 9-Isopropoxy-8-methoxy-1-thiophen-2-yl-5,6-dihydro-pyrrolo[2,1-α]isoquinoline-3-carboxylic acid methyl-pyrrolidin-1-yl-amide] | 55.2
COc1cc2c(cc1OC(C)C)-c1c(-c3cccs3)cc(C(=O)N3CCCN(C(=O)C4(SC)CCC4)CC3)n1CC2 [Example 9, (9-Isopropoxy-8-methoxy-1-thiophen-2-yl-5,6-dihydro-pyrrolo[2,1-α]isoquinolin-3-yl)-[4-(1-methylsulfanyl-cyclobutanecarbonyl)-[1,4]diazepan-1-yl]-methanone] | 16.4
COc1cc2c(cc1NC(=O)CN1CCOCC1)-c1c(-c3cccs3)cc(C(=O)N3CCCC3(C)C)n1CC2 [Example 101, N-[3-(2,2-Dimethyl-pyrrolidine-1-carbonyl)-8-methoxy-1-thiophen-2-yl-5,6-dihydro-pyrrolo[2,1-α]isoquinolin-9-yl]-2-morpholin-4-yl-acetamide] | 2
COc1cc2c(cc1C(=O)NCCO)-c1c(-c3cccs3)cc(C(=O)N(C)C(C)(C)C)n1CC2 [Example 87, 8-Methoxy-1-thiophen-2-yl-5,6,6a,10a-tetrahydro-pyrrolo[2,1-α]isoquinoline-3,9-dicarboxylic acid 3-(tert-butyl-methyl-amide) 9-[(2-hydroxy-ethyl)-amide]] | 23.9
CCN(C(=O)c1cc(-c2cccs2)c2n1CCc1c-2cc(OC)c(OC)c1C)C(C)C [Example 114, 8,9-Dimethoxy-7-methyl-1-thiophen-2-yl-5,6-dihydro-pyrrolo[2,1-α]isoquinoline-3-carboxylic acid ethyl-isopropyl-amide] | 321
COc1cc2c(cc1C=O)-c1c(-c3cccs3)cc(C(=O)N(C)C(C)(C)C)n1CC2 [Example 91a, 9-Formyl-8-methoxy-1-thiophen-2-yl-5,6-dihydro-pyrrolo[2,1-α]isoquinoline-3-carboxylic acid tert-butyl-methyl-amide] | 6
COc1cc2c(cc1OC(C)C)-c1c(-c3cccs3)cc(C(=O)NC3C[C@@H]4CN(C(C)=O)C[C@@H]4C3)n1CC2 (stereo partly drawn) [Example 23, 9-Isopropoxy-8-methoxy-1-thiophen-2-yl-5,6-dihydro-pyrrolo[2,1-α]isoquinoline-3-carboxylic acid (2-acetyl-octahydro-cyclopenta[c]pyrrol-5(endo)-yl)-amide] | 787
COc1cc2c(cc1OCC1CC1)-c1c(-c3cccs3)cc(C(=O)N3CCCN(C(C)=O)CC3)n1CC2 [Example 77, 1-[4-(9-Cyclopropylmethoxy-8-methoxy-1-thiophen-2-yl-5,6-dihydro-pyrrolo[2,1-α]iso-quinoline-3-carbonyl)-perhydro-1,4-diazepin-1-yl]-ethanone] | 57.6
COc1cc2c(cc1OC(C)C)-c1c(-c3cccs3)cc(C(=O)N3CCCN(C(=O)C4(O)CCC4)CC3)n1CC2 [Example 10, [4-(1-Hydroxy-cyclobutanecarbonyl)-[1,4]diazepan-1-yl]-(9-isopropoxy-8-methoxy-1-thiophen-2-yl-5,6-dihydro-pyrrolo[2,1-α]isoquinolin-3-yl)-methanone] | 1.4
COc1cc2c(cc1O)-c1c(-c3cccs3)cc(C(=O)N(C)C(C)(C)C)n1CC2 [Example 52, 9-Hydroxy-8-methoxy-1-thiophen-2-yl-5,6-dihydro-pyrrolo[2,1-α]isoquinoline-3-carboxylic acid tert-butyl-methyl-amide] | 356
COc1cc2c(cc1Br)-c1c(-c3cccs3)cc(C(=O)N(C)C(C)(C)C)n1CC2 [Example 85a, 9-Bromo-8-methoxy-1-thiophen-2-yl-5,6-dihydro-pyrrolo[2,1--α]isoquinoline-3-carboxylic acid tert-butyl-methyl-amide] | 11.3
